Source: ChEMBL document CHEMBL3885881, “DrugMatrix”

Species: Rattus norvegicus
Assay: DrugMatrix - Regimen: Daily Repeat
Format: toxicity, organism-based, Sprague-Dawley
Set-up: regimen Daily Repeat, gender Male, age 6-8 weeks
Conditions: in vivo, po, route oral GAVAGE, vehicle .5 % CMC; for ABSOLUTE BASOPHIL / ABSOLUTE EOSINOPHIL / ABSOLUTE LYMPHOCYTE / ABSOLUTE MONOCYTE / ABSOLUTE SEGMENTED NEUTROPHIL / BASOPHIL / EOSINOPHIL / ERYTHROCYTE COUNT / HEMATOCRIT / HEMOGLOBIN / LEUKOCYTE COUNT / LYMPHOCYTE / MEAN CORPUSCULAR HEMOGLOBIN / MEAN CORPUSCULAR HEMOGLOBIN CONCENTRATION / MEAN CORPUSCULAR VOLUME / MONOCYTE / NEUTROPHIL / NUCLEATED RED BLOOD CELLS / PLATELET COUNT: tissue Blood; for ALANINE AMINOTRANSFERASE / ALBUMIN / ALKALINE PHOSPHATASE / ASPARTATE AMINOTRANSFERASE / BLOOD UREA NITROGEN / CARBON DIOXIDE / CHLORIDE / CHOLESTEROL / CREATINE PHOSPHOKINASE / CREATININE / GLUCOSE / LIPASE / PHOSPHORUS / POTASSIUM / SODIUM / TOTAL BILIRUBIN / TOTAL PROTEIN / URIC ACID: tissue Plasma
[1] = 0.3 mg/kg, 72 h, dose level High, time 3 day
[2] = 0.3 mg/kg, 120 h, dose level High, time 5 day
[3] = […], 72 h, dose 0.014 mg/Kg, dose level Low, time 3 day
[4] = […], 120 h, dose 0.014 mg/Kg, dose level Low, time 5 day

## COc1cc2c(c3oc(=O)c4c(c13)CCC4=O)[C@@H]1C=CO[C@@H]1O2 [AFLATOXIN]
[1]
  ABSOLUTE BASOPHIL: 0 CELLS/uL
  ABSOLUTE EOSINOPHIL: 214.67 CELLS/uL
  ABSOLUTE LYMPHOCYTE: 14943 CELLS/uL
  ABSOLUTE MONOCYTE: 279 CELLS/uL
  ABSOLUTE SEGMENTED NEUTROPHIL: 1230 CELLS/uL
  BASOPHIL: 0%
  EOSINOPHIL: 1.33%
  ERYTHROCYTE COUNT: 5.62 x10E6/uL
  HEMATOCRIT: 35.63%
  HEMOGLOBIN: 13.67 G/DL
  LEUKOCYTE COUNT: 16.67 x10E3/uL
  LYMPHOCYTE: 89.67%
  MEAN CORPUSCULAR HEMOGLOBIN: 24.33 pg
  MEAN CORPUSCULAR HEMOGLOBIN CONCENTRATION: 38.33 G/DL
  MEAN CORPUSCULAR VOLUME: 63.4 fL
  MONOCYTE: 1.67%
  NEUTROPHIL: 7.33%
  NUCLEATED RED BLOOD CELLS: 0.33 /100WBC
  PLATELET COUNT: 1408.33 x10E3/uL
  ALANINE AMINOTRANSFERASE: 50 u/L
  ALBUMIN: 4.07 G/DL
  ALKALINE PHOSPHATASE: 424 u/L
  ASPARTATE AMINOTRANSFERASE: 109.33 u/L
  BLOOD UREA NITROGEN: 15.67 mg/dL
  CARBON DIOXIDE: 24.33 mmol/L
  CHLORIDE: 104 MEQ/L
  CHOLESTEROL: 59.67 mg/dL
  CREATINE PHOSPHOKINASE: 568.33 u/L
  CREATININE: 0.14 mg/dL
  GLUCOSE: 152.67 mg/dL
  LIPASE: 8.67 u/L
  PHOSPHORUS: 13 mg/dL
  POTASSIUM: 6.95 MEQ/L
  SODIUM: 144.7 MEQ/L
  TOTAL BILIRUBIN: 0.23 mg/dL
  TOTAL PROTEIN: 5.27 G/DL
  URIC ACID: 1.73 mg/dL
[2]
  ABSOLUTE BASOPHIL: 0 CELLS/uL
  ABSOLUTE EOSINOPHIL: 83.33 CELLS/uL
  ABSOLUTE LYMPHOCYTE: 13811.33 CELLS/uL
  ABSOLUTE MONOCYTE: 454 CELLS/uL
  ABSOLUTE SEGMENTED NEUTROPHIL: 784.67 CELLS/uL
  BASOPHIL: 0%
  EOSINOPHIL: 0.67%
  ERYTHROCYTE COUNT: 5.95 x10E6/uL
  HEMATOCRIT: 36.77%
  HEMOGLOBIN: 14.07 G/DL
  LEUKOCYTE COUNT: 15.13 x10E3/uL
  LYMPHOCYTE: 91%
  MEAN CORPUSCULAR HEMOGLOBIN: 23.63 pg
  MEAN CORPUSCULAR HEMOGLOBIN CONCENTRATION: 38.23 G/DL
  MEAN CORPUSCULAR VOLUME: 61.8 fL
  MONOCYTE: 3%
  NEUTROPHIL: 5.33%
  NUCLEATED RED BLOOD CELLS: 0 /100WBC
  PLATELET COUNT: 1425.67 x10E3/uL
  ALANINE AMINOTRANSFERASE: 64.67 u/L
  ALBUMIN: 4.1 G/DL
  ALKALINE PHOSPHATASE: 290.33 u/L
  ASPARTATE AMINOTRANSFERASE: 102.33 u/L
  BLOOD UREA NITROGEN: 17.33 mg/dL
  CARBON DIOXIDE: 27 mmol/L
  CHLORIDE: 105.5 MEQ/L
  CHOLESTEROL: 48 mg/dL
  CREATINE PHOSPHOKINASE: 345.67 u/L
  CREATININE: 0.19 mg/dL
  GLUCOSE: 158.67 mg/dL
  LIPASE: 9 u/L
  PHOSPHORUS: 12.27 mg/dL
  POTASSIUM: 5.92 MEQ/L
  SODIUM: 147.5 MEQ/L
  TOTAL BILIRUBIN: 0.13 mg/dL
  TOTAL PROTEIN: 5.53 G/DL
  URIC ACID: 1.93 mg/dL
[3]
  ABSOLUTE BASOPHIL: 0 CELLS/uL
  ABSOLUTE EOSINOPHIL: 94 CELLS/uL
  ABSOLUTE LYMPHOCYTE: 13843.33 CELLS/uL
  ABSOLUTE MONOCYTE: 261.67 CELLS/uL
  ABSOLUTE SEGMENTED NEUTROPHIL: 1234.33 CELLS/uL
  BASOPHIL: 0%
  EOSINOPHIL: 0.67%
  ERYTHROCYTE COUNT: 5.21 x10E6/uL
  HEMATOCRIT: 33%
  HEMOGLOBIN: 12.47 G/DL
  LEUKOCYTE COUNT: 15.43 x10E3/uL
  LYMPHOCYTE: 89.67%
  MEAN CORPUSCULAR HEMOGLOBIN: 23.93 pg
  MEAN CORPUSCULAR HEMOGLOBIN CONCENTRATION: 37.8 G/DL
  MEAN CORPUSCULAR VOLUME: 63.23 fL
  MONOCYTE: 1.67%
  NEUTROPHIL: 8%
  NUCLEATED RED BLOOD CELLS: 0 /100WBC
  PLATELET COUNT: 1257 x10E3/uL
  ALANINE AMINOTRANSFERASE: 47.67 u/L
  ALBUMIN: 4.1 G/DL
  ALKALINE PHOSPHATASE: 302.67 u/L
  ASPARTATE AMINOTRANSFERASE: 99 u/L
  BLOOD UREA NITROGEN: 16.33 mg/dL
  CARBON DIOXIDE: 25.33 mmol/L
  CHLORIDE: 103.33 MEQ/L
  CHOLESTEROL: 64.67 mg/dL
  CREATINE PHOSPHOKINASE: 408 u/L
  CREATININE: 0.21 mg/dL
  GLUCOSE: 142.33 mg/dL
  LIPASE: 9 u/L
  PHOSPHORUS: 12.17 mg/dL
  POTASSIUM: 6.42 MEQ/L
  SODIUM: 143.57 MEQ/L
  TOTAL BILIRUBIN: 0.2 mg/dL
  TOTAL PROTEIN: 5.47 G/DL
  URIC ACID: 1.47 mg/dL
[4]
  ABSOLUTE BASOPHIL: 0 CELLS/uL
  ABSOLUTE EOSINOPHIL: 37.67 CELLS/uL
  ABSOLUTE LYMPHOCYTE: 14048 CELLS/uL
  ABSOLUTE MONOCYTE: 191.67 CELLS/uL
  ABSOLUTE SEGMENTED NEUTROPHIL: 1122.67 CELLS/uL
  BASOPHIL: 0%
  EOSINOPHIL: 0.33%
  ERYTHROCYTE COUNT: 5.76 x10E6/uL
  HEMATOCRIT: 35.83%
  HEMOGLOBIN: 13.37 G/DL
  LEUKOCYTE COUNT: 15.4 x10E3/uL
  LYMPHOCYTE: 91%
  MEAN CORPUSCULAR HEMOGLOBIN: 23.2 pg
  MEAN CORPUSCULAR HEMOGLOBIN CONCENTRATION: 37.3 G/DL
  MEAN CORPUSCULAR VOLUME: 62.2 fL
  MONOCYTE: 1.33%
  NEUTROPHIL: 7.33%
  NUCLEATED RED BLOOD CELLS: 1.33 /100WBC
  PLATELET COUNT: 1353 x10E3/uL
  ALANINE AMINOTRANSFERASE: 48.33 u/L
  ALBUMIN: 4.3 G/DL
  ALKALINE PHOSPHATASE: 352.33 u/L
  ASPARTATE AMINOTRANSFERASE: 90.33 u/L
  BLOOD UREA NITROGEN: 19.67 mg/dL
  CARBON DIOXIDE: 26.33 mmol/L
  CHLORIDE: 105.67 MEQ/L
  CHOLESTEROL: 63.33 mg/dL
  CREATINE PHOSPHOKINASE: 486.67 u/L
  CREATININE: 0.21 mg/dL
  GLUCOSE: 164.67 mg/dL
  LIPASE: 8.33 u/L
  PHOSPHORUS: 12.6 mg/dL
  POTASSIUM: 6.34 MEQ/L
  SODIUM: 146.9 MEQ/L
  TOTAL BILIRUBIN: 0.2 mg/dL
  TOTAL PROTEIN: 6.03 G/DL
  URIC ACID: 1.93 mg/dL
